In patent US8710074B2, “Dihydronaphthyridinyl(organo)methanone analogs as positive allosteric mGluR5 modulators” (Vanderbilt University, priority 2011, dated 2014):

Target: human mGluR5 (Homo sapiens, UniProt P41594)
Test: Cell-based functional assay: Ca2+ mobilization (FDSS), potentiation of glutamate EC20 response
Settings: HEK cells transfected with human mGluR5 (H10H or H12H cell line); positive allosteric modulation in presence of glutamate EC20
Description: Human embryonic kidney (HEK) cells transfected with rat mGluR5 were plated in clear bottom assay plates for assay in a Functional Drug Screening System (FDSS). In the alternative assay, HEK cells transfected with human mGluR5 were plated for assay in the FDSS. In some cases the HEK cells transfected with human mGluR5 were the H10H cell line. Alternatively, the HEK cells transfected with human mGluR5 were the H12H cell line. […] The cells were loaded with a Ca^2+-sensitive fluorescent dye (e.g., Fluo-4), and the plates were washed and placed in the FDSS instrument. After establishment of a fluorescence baseline for twelve seconds, the compounds of the present invention were added to the cells, and the response in cells was measured. Alternatively, in various further aspects, after establishment of a fluorescence baseline for about three seconds, the compounds of the present invention were added to the cells, and the response in cells was measured. Five minutes later, an mGluR5 agonist (e.g., glutamate, 3,5-dihydroxyphenylglycine, or quisqualate) was added to the cells, and the response of the cells was measured. Potentiation of the agonist response of mGluR5 by the compounds in the present invention was observed as an increase in response to non-maximal concentrations of agonist (here, glutamate) in the presence of compound compared to the response to agonist in the absence of compound.
The above described assay operated in two modes. In the first mode, a range of concentrations of the present compounds were added to cells, followed by a single fixed concentration of agonist. If a compound acted as a potentiator, an EC50 value for potentiation and a maximum extent of potentiation by the compound at this concentration of agonist was determined by non-linear curve fitting. In the second mode, several fixed concentrations of the present compounds were added to various wells on a plate, followed by a range of concentrations of agonist for each concentration of present compound; the EC50 values for the agonist at each concentration of compound were determined by non-linear curve fitting. A decrease in the EC50 value of the agonist with increasing concentrations of the present compounds (a leftward shift of the agonist concentration-response curve) is an indication of the degree of mGluR5 potentiation at a given concentration of the present compound. An increase in the EC50 value of the agonist with increasing concentrations of the present compounds (a rightward shift of the agonist concentration-response curve) is an indication of the degree of mGluR5 antagonism at a given concentration of the present compound. The second mode also indicates whether the present compounds also affect the maximum response to mGluR5 to agonists.
Table 1 below lists specific compounds as well as experimentally determined mGluR5 activity determined in a cell-based assay. The examples shown in Table I are provided so that the invention might be more fully understood, and these examples are illustrative only and should not be construed as limiting the invention in any way. The mGluR5 activity was determined using the metabotropic glutamate receptor activity assays in human embryonic kidney cells as described herein, wherein the human embryonic kidney cells were transfected with human mGluR5. The compounds in Table 1 were synthesized with methods identical or analogous to those shown herein. The column labeled “Rxn” and the data thereunder indicated in Table 1 refers to the Reaction Scheme number described above. The requisite starting materials were commercially available, described in the literature, or readily synthesized by one skilled in the art of organic synthesis. Compounds shown in Table I are depicted having a basic group or acidic group and named as the free base acid. […]

human mGluR5, sequence (P41594 21-1180 isoform P41594-2 limits assumed): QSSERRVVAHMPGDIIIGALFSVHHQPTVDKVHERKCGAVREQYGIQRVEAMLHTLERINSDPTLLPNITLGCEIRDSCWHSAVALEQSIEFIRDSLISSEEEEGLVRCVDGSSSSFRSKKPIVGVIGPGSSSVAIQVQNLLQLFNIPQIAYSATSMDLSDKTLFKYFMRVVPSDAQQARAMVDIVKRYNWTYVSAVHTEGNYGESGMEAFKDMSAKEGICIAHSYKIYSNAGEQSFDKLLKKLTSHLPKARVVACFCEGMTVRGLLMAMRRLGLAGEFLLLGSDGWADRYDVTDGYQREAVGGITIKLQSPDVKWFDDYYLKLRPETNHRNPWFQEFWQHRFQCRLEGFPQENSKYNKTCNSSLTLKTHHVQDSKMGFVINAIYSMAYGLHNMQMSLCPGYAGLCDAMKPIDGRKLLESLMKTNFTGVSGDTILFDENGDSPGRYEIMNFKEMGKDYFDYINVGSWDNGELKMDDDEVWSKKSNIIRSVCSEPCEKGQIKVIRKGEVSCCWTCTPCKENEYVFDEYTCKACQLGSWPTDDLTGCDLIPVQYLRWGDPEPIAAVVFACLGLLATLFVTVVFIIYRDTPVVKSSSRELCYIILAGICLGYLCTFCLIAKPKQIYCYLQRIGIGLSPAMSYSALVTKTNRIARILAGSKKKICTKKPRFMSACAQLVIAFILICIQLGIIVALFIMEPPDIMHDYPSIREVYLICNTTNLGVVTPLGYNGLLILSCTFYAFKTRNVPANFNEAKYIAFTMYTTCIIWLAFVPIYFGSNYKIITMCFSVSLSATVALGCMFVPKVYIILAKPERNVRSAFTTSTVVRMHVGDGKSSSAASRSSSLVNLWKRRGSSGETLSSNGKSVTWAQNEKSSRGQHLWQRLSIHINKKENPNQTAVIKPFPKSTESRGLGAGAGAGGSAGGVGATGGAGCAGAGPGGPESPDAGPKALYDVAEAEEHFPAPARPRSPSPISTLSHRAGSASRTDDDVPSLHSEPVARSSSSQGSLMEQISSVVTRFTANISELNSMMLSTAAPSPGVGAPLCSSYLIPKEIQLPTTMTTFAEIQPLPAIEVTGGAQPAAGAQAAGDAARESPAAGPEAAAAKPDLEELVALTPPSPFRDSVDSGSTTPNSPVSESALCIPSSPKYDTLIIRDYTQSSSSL

Row | EC50 [nM] | Structure (SMILES)
1 | > 30000 | CC(C)(C)OC(=O)N1CCc2ncc(OCc3cccc(F)c3)cc2C1 [Compound 4]
2 | > 30000 | O=C(c1cccc(F)c1)N1CCc2ncc(OCc3cccc(F)c3)cc2C1 [Compound 5]
3 | > 30000 | O=C(C1CC1)N1CCc2ncc(OCc3cccc(F)c3)cc2C1 [Compound 6]

Second part, the compound before the results:

Row | Structure (SMILES) | EC50 [nM]
4 | O=C(c1ccc(F)cc1)N1CCc2ncc(COc3cccc(F)c3)cc2C1 [Compound 2, (3-((3-fluorophenoxy)methyl)-7,8-dihydro-1,6-naphthyridin-6(5H)-yl) (4-fluorophenyl)methanone] | 690
5 | O=C(c1ccc(F)cc1)N1CCc2ncc(COc3ccc(F)cc3)cc2C1 [Compound 3, (3-((4-fluorophenoxy)methyl)-7,8-dihydro-1,6-naphthyridin-6(5H)-yl)(4-fluorophenyl)methanone] | 910
6 | O=C(c1ccc(F)cc1)N1CCc2ncc(COc3ccccc3)cc2C1 [Compound 1, (4-Fluorophenyl)(3-(phenoxymethyl)-7,8-dihydro-1,6-naphthyridin-6(5H)-yl)methanone] | 380
